Columns and labels:
EZH1 = EZH1 (Homo sapiens, UniProt Q92800); test: AlphaLISA enzyme activity inhibition, EZH1; format: biochemical; details: 5nM test substance
Description: (§1) In order to confirm the EZH1 and/or EZH2 activity inhibitory effect of the 1,3-benzodioxole derivative compounds represented by chemical formula I of the present invention, the activity was measured using an AlphaLISA test method. The test substance dissolved in dimethylsulfoxide (DMSO) was diluted in a test solution (20 mM Tris pH 8.0, 0.1% BSA, 0.01% Triton X-100, 0.5 mM DTT) according to a final treatment concentration (5 nM or 10 nM) and mixed with EZH1 and EZH2, respectively, and then histone H3 peptide and S-adenosylmethionine (SAM) were added to initiate an enzyme reaction. An acceptor bead was added thereto after reaction for two hours and subjected to an additional reaction for one hour, after which a donor bead was added thereto. After an additional reaction for 30 minutes, the reaction was completed. An activity was measured using the Magellan program on a Spark10M instrument. DMSO was used as a control group, an inhibition rate of enzyme activity was calculated using a following equation, and the results thereof are shown in Table 1 below. [formula]

EZH2 = EZH2 (Homo sapiens, UniProt Q15910); test: AlphaLISA enzyme activity inhibition, EZH2; format: biochemical; details: 5nM test substance
Chain of EZH2 (Q15910 whole entry, species assumed): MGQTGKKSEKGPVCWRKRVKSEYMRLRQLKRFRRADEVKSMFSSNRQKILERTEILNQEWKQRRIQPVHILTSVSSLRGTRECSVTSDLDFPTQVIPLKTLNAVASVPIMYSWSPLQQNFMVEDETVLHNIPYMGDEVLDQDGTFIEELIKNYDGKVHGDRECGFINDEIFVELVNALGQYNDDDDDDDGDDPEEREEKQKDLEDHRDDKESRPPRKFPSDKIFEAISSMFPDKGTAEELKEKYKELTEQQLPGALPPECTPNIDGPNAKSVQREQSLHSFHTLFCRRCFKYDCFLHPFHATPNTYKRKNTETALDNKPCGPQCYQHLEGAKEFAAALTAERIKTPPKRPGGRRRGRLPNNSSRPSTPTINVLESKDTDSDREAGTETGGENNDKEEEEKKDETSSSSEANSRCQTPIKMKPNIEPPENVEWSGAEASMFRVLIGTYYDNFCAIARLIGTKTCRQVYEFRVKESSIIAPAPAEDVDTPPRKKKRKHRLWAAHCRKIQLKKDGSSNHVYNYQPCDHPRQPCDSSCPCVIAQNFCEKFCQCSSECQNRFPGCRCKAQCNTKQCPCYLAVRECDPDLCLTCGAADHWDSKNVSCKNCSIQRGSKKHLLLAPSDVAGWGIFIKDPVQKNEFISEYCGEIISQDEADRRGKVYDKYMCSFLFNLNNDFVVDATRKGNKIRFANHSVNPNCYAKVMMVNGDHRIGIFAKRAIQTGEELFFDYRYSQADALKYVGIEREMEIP
Chain of EZH2 (O75530 whole entry partner, species assumed): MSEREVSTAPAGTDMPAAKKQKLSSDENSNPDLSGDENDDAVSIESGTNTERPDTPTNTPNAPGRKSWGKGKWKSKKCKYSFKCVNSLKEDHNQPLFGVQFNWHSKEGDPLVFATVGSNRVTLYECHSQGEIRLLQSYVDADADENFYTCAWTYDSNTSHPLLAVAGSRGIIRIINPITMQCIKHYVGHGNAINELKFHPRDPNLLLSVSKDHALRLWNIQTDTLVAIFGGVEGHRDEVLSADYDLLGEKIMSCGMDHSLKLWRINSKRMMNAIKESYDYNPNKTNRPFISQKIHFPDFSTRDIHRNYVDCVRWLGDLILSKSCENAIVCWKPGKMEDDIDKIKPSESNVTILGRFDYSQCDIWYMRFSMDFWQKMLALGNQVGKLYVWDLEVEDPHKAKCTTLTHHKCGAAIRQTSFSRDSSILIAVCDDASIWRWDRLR
Chain of EZH2 (Q15022 whole entry partner, species assumed): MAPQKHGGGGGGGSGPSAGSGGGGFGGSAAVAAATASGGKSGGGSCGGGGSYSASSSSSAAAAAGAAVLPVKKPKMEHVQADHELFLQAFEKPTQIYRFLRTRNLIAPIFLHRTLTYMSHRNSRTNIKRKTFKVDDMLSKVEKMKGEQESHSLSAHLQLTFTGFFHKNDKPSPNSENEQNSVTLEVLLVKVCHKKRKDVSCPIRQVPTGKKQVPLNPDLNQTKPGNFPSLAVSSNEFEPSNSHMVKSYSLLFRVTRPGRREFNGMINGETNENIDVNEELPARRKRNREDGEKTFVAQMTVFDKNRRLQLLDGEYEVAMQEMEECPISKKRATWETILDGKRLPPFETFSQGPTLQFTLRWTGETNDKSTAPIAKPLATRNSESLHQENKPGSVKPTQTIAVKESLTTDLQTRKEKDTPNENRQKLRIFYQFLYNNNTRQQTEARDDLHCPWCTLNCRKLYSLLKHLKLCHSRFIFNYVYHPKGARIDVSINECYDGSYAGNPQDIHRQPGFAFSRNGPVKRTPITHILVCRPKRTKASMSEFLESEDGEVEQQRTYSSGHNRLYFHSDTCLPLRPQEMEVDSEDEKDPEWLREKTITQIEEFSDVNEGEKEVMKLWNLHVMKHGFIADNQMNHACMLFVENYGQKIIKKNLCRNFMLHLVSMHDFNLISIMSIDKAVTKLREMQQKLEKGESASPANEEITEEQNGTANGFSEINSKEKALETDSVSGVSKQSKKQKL
Description: as §1

Lovo cells = test: Cancer cell proliferation inhibition (Cell Counting Kit-8), colorectal cancer cell line; format: cell-based; details: Homo sapiens, LoVo, 264 h, 1000 nM, cultured seven to 11 days; read-out: % inhibition rate LoVo
In short: (§2)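 One dose only (1000 nM), 7–11 d exposure, 10% FBS in line-appropriate medium; CCK-8 endpoint, inhibition expressed relative to control.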

G401 cells = test: Cancer cell proliferation inhibition (Cell Counting Kit-8), rhabdoid tumor cell line; format: cell-based; details: Homo sapiens, G-401, 264 h, 1000 nM, cultured seven to 11 days; read-out: % inhibition rate G401
In short: (§3)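 Cells grown in RPMI1640, McCoy's 5a, L-15 or DMEM with 10% FBS, seeded at 100 to 1,000 cells/well and treated with test substance at 1000 nM for 7 to 11 days. Viability read by CCK-8; % inhibition = {1−(test/control)} × 100.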

MKN-45 cells = test: Cancer cell proliferation inhibition (Cell Counting Kit-8), gastric cancer cell line; format: cell-based; details: Homo sapiens, MKN-45, 264 h, 1000 nM, cultured seven to 11 days; read-out: % inhibition rate MKN -45
In short: as §3

SW-13 cells = test: Cancer cell proliferation inhibition (Cell Counting Kit-8), adrenal cancer cell line; format: cell-based; details: Homo sapiens, SW13, 264 h, 1000 nM, cultured seven to 11 days; read-out: % inhibition rate SW-13
In short: as §2

MIA-PaCa-2 cells = test: Cancer cell proliferation inhibition (Cell Counting Kit-8), pancreatic cancer cell line; format: cell-based; details: Homo sapiens, MIA PaCa-2, 264 h, 1000 nM, cultured seven to 11 days; read-out: % inhibition rate MIA-Paca2
In short: as §2

NCI-H1299 cells = test: Cancer cell proliferation inhibition (Cell Counting Kit-8), lung cancer cell line; format: cell-based; details: Homo sapiens, NCI-H1299, 264 h, 1000 nM, cultured seven to 11 days; read-out: % inhibition rate NCI-H129 9
In short: as §2

Chain of EZH1 (Q92800 whole entry, species assumed): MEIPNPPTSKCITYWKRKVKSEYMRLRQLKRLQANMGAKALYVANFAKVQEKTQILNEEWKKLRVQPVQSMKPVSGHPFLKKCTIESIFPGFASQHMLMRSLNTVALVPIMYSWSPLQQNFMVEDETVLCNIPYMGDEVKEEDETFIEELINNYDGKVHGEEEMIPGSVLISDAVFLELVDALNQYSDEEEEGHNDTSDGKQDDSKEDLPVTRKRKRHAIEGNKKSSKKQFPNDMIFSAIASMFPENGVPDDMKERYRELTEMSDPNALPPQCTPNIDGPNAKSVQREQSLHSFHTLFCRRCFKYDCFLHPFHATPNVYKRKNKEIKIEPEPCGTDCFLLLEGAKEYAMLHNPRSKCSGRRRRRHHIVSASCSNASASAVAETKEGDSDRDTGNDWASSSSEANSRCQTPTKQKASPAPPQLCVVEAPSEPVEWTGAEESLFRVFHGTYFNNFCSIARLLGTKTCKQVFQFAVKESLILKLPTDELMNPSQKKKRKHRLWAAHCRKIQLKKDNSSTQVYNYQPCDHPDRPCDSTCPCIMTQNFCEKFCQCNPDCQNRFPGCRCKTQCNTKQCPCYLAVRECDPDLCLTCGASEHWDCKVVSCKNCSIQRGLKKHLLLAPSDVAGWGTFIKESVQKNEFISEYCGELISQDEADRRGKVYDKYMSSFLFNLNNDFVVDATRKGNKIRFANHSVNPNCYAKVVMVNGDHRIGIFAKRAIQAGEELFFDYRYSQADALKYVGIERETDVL
Chain of EZH1 (O75530 whole entry partner, species assumed): as the sequence (O75530 whole entry partner, species assumed) above
Chain of EZH1 (Q15022 whole entry partner, species assumed): as the sequence (Q15022 whole entry partner, species assumed) above

SMILES | inhibition at 0.005 µM (EZH1) [%] | inhibition at 0.005 µM (EZH2) [%] | inhibition at 1 µM (Lovo cells) [%] | inhibition at 1 µM (G401 cells) [%] | inhibition at 1 µM (MKN-45 cells) [%] | inhibition at 1 µM (SW-13 cells) [%] | inhibition at 1 µM (MIA-PaCa-2 cells) [%] | inhibition at 1 µM (NCI-H1299 cells) [%]
CSc1cc(C)[nH]c(=O)c1CNC(=O)c1cc(-c2c(C)noc2C)c2c(c1C)OC(C)([C@H]1CC[C@H](N(C)C)CC1)O2 (relative stereo) [Compound 13, 2-(trans-4-(dimethylamino)cyclohexyl)-7-(3,5-dimethylisoxazol-4-yl)-2,4-dimethyl-N-((6-methyl-4-(methylthio)-2-oxo-1,2-dihydropyridin-3-yl)methyl)benzo[d][1,3]dioxole-5-carboxamide] | 53.7 | 97.6 | 30 to 70 | 30 to 70 | ≤ 30 | ≤ 30 | ≤ 30 | ≤ 30
CSc1cc(C)[nH]c(=O)c1CNC(=O)c1cc(-c2ccc(F)nc2F)c2c(c1C)OC(C)([C@H]1CC[C@H](N(C)C)CC1)O2 (relative stereo) [Compound 14, 7-(2,6-difluoropyridin-3-yl)-2-(trans-4-(dimethylamino)cyclohexyl)-2,4-dimethyl-N-((6-methyl-4-(methylthio)-2-oxo-1,2-dihydropyridin-3-yl)methyl)benzo[d][1,3]dioxole-5-carboxamide] | 86.4 | 97.6 | ≥ 70 | 30 to 70 | ≤ 30 | 30 to 70 | ≤ 30 | ≤ 30
CSc1cc(C)[nH]c(=O)c1CNC(=O)c1cc(-c2cnc(N3CCC4(CC3)COC4)nc2)c2c(c1C)OC(C)([C@H]1CC[C@H](N(C)C)CC1)O2 (relative stereo) [Compound 15, 7-(2-(2-oxa-7-azaspiro[3.5]nonan-7-yl)pyrimidin-5-yl)-2-(trans-4-(dimethylamino)cyclohexyl)-2,4-dimethyl-N-((6-methyl-4-(methylthio)-2-oxo-1,2-dihydropyridin-3-yl)methyl)benzo[d][1,3]dioxole-5-carboxamide] | 94.5 | 99.8 | ≥ 70 | 30 to 70 | 30 to 70 | 30 to 70 | ≤ 30 | ≤ 30
CSc1cc(C)[nH]c(=O)c1CNC(=O)c1cc(-c2ccc(N3CC(C)CC(C)C3)nc2)c2c(c1C)OC(C)([C@H]1CC[C@H](N(C)C)CC1)O2 (relative stereo) [Compound 16, 2-(trans-4-(dimethylamino)cyclohexyl)-7-(6-(3,5-dimethylpiperidin-1-yl)pyridin-3-yl)-2,4-dimethyl-N-((6-methyl-4-(methylthio)-2-oxo-1,2-dihydropyridin-3-yl)methyl)benzo[d][1,3]dioxole-5-carboxamide] | 69 | 92.4 | ≥ 70 | 30 to 70 | 30 to 70 | ≥ 70 | ≤ 30 | ≤ 30
CSc1cc(C)[nH]c(=O)c1CNC(=O)c1cc(-c2ccc(N3CCSCC3)nc2)c2c(c1C)OC(C)([C@H]1CC[C@H](N(C)C)CC1)O2 (relative stereo) [Compound 17, 2-(trans-4-(dimethylamino)cyclohexyl)-2,4-dimethyl-N-((6-methyl-4-(methylthio)-2-oxo-1,2-dihydropyridin-3-yl)methyl)-7-(6-thiomorpholinopyridin-3-yl)benzo[d][1,3]dioxole-5-carboxamide] | 93.8 | 99.3 | ≥ 70 | 30 to 70 | ≤ 30 | 30 to 70 | ≤ 30 | 30 to 70
CSc1cc(C)[nH]c(=O)c1CNC(=O)c1cc(-c2ccoc2)c2c(c1C)OC(C)([C@H]1CC[C@H](N(C)C)CC1)O2 (relative stereo) [Compound 18, 2-(trans-4-(dimethylamino)cyclohexyl)-7-(furan-3-yl)-2,4-dimethyl-N-((6-methyl-4-(methylthio)-2-oxo-1,2-dihydropyridin-3-yl)methyl)benzo[d][1,3]dioxole-5-carboxamide] | 87.6 | 99.8 | ≥ 70 | 30 to 70 | ≤ 30 | 30 to 70 | ≤ 30 | ≤ 30
CSc1cc(C)[nH]c(=O)c1CNC(=O)c1cc(-c2ccc(Cl)s2)c2c(c1C)OC(C)([C@H]1CC[C@H](N(C)C)CC1)O2 (relative stereo) [Compound 19, 7-(5-chlorothiophen-2-yl)-2-(trans-4-(dimethylamino)cyclohexyl)-2,4-dimethyl-N-((6-methyl-4-(methylthio)-2-oxo-1,2-dihydropyridin-3-yl)methyl)benzo[d][1,3]dioxole-5-carboxamide] | 78.7 | 98.7 | ≥ 70 | 30 to 70 | 30 to 70 | 30 to 70 | ≤ 30 | ≤ 30
CSc1cc(C)[nH]c(=O)c1CNC(=O)c1cc(-c2cnc(N3CCCCC3)nc2)c2c(c1C)OC(C)([C@H]1CC[C@H](N(C)CC(F)(F)F)CC1)O2 (relative stereo) [Compound 21, 2,4-dimethyl-2-(trans-4-(methyl(2,2,2-trifluoroethyl)amino)cyclohexyl)-N-((6-methyl-4-(methylthio)-2-oxo-1,2-dihydropyridin-3-yl)methyl)-7-(2-(piperidin-1-yl)pyrimidin-5-yl)benzo[d][1,3]dioxole-5-carboxamide] | 20.6 | 11.3 | ≥ 70 | ≤ 30 | ≤ 30 | ≤ 30 | ≤ 30 | ≤ 30
CSc1cc(C)[nH]c(=O)c1CNC(=O)c1cc(-c2cnc(N(C)C)nc2)c2c(c1C)OC(C)([C@H]1CC[C@H](N(C)CC(F)(F)F)CC1)O2 (relative stereo) [Compound 22, 7-(2-(dimethylamino)pyrimidin-5-yl)-2,4-dimethyl-2-(trans-4-(methyl(2,2,2-trifluoroethyl)amino)cyclohexyl)-N-((6-methyl-4-(methylthio)-2-oxo-1,2-dihydropyridin-3-yl)methyl)benzo[d][1,3]dioxole-5-carboxamide] | 53.1 | 81 | ≥ 70 | 30 to 70 | 30 to 70 | ≤ 30 | ≤ 30 | ≤ 30
COCCN(C)[C@H]1CC[C@H](C2(C)Oc3c(-c4cnc(N(C)C)nc4)cc(C(=O)NCc4c(SC)cc(C)[nH]c4=O)c(C)c3O2)CC1 (relative stereo) [Compound 26, 7-(2-(dimethylamino)pyrimidin-5-yl)-2-(trans-4-((2-methoxyethyl)(methyl)amino)cyclohexyl)-2,4-dimethyl-N-((6-methyl-4-(methylthio)-2-oxo-1,2-dihydropyridin-3-yl)methyl)benzo[d][1,3]dioxole-5-carboxamide] | 87.3 | 99.6 | ≥ 70 | 30 to 70 | ≤ 30 | 30 to 70 | ≤ 30 | ≤ 30

— patent EP4740948A1 (Dong Wha Pharm. Co., Ltd., priority 2023, dated 2025)
